Source: patent publication US20110028445A1, “Urea derivatives of benzomorphanes and related scaffolds, medicaments containing such compounds and their use” (BOEHRINGER INGELHEIM INTERNATIONAL GMBH, priority 2008, published 2011)

Biological target: T1, 11β-HSD1 (Homo sapiens, UniProt P28845)
T1 construct: detecting cortisol generated from cortisterone by human liver microsomes; from tissue; host or cells: human liver microsomes
Test: In vitro inhibition of 11β-HSD1, HTRF detection of cortisol generated by human liver microsomes
Format: biochemical
Conditions: compound concentration 1 μM, 100% indicates no inhibition, zero or below zero indicates complete inhibition, cortisone 80 nM, 1 hour at 37° C., read-out: % CTL at 1 μM
Protocol: Briefly, compounds were incubated for 1 hour at 37° C. in Tris buffer (20 mM tris, 5 mM EDTA, pH 6.0) containing NADPH (200 μM) and cortisone (80 nM). Cortisol generated in the reaction is then detected with a competitive immunoassay, involving two HTRF conjugates: cortisol linked to XL665 and anti-cortisol antibody labeled with Europium cryptate. The incubation period for detection reaction was typically 2 hours. The amount of cortisol is determined by reading the time-resolved fluorescence of the wells (Ex 320/75 nm; Em 615/8.5 nm and 665/7.5 nm). The ratio of the two emission signals is then calculated (Em665*10000/Em615). […] Each assay also contained a calibration curve with cortisol to transform the fluorescent data into cortisol concentrations. Percent inhibition of each compound was determined relative to the carbenoxolone signal and IC50 curves were generated.
The % CTL values of some example compounds at a concentration of 1 μM are provided in the following Table 2 wherein 100% indicates no inhibition and a value of zero or below zero indicates complete inhibition. The measurement of % CTL is described hereinbefore.

T1 sequence (P28845 whole entry): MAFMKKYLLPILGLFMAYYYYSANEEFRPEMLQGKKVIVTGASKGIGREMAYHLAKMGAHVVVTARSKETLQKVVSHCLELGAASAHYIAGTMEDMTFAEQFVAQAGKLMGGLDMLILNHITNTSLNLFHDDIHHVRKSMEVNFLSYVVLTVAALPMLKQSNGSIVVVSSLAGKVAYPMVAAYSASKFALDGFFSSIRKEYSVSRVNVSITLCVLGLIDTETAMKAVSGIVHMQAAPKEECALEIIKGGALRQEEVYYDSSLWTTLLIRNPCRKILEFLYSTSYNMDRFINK

| Structure (SMILES) | remaining activity at 1 µM |
| --- | --- |
| CC1(C)[C@H]2Cc3ccccc3[C@]1(C)CCN2C(=O)N1CCOCC1c1ccccc1 (stereo partly shown) [Example 68] | 87% |
| CC(C)(O)[C@H]1CCCN(C(=O)N2CC[C@@]3(C)c4ccccc4C[C@@H]2C3(C)C)C1 [Example 69] | 6% |
| CC1(C)[C@H]2Cc3ccccc3[C@]1(C)CCN2C(=O)N1CCC(O)CC1 [Example 70] | -15% |
| CC1(C)[C@H]2Cc3ccccc3[C@]1(C)CCN2C(=O)N1CCC[C@@H](CO)C1 [Example 71, [(R)-3-Hydroxymethyl-piperidin-1-yl]-[(2R,6S)-6,11,11-trimethyl-1,2,5,6-tetrahydro-4H-2,6-methano-benzo[d]azocin-3-yl)-methanone] | -18% |
| CC1(C)[C@H]2Cc3ccccc3[C@]1(C)CCN2C(=O)N1CCC(O)(C(F)(F)F)CC1 [Example 72] | -11% |
| CC1(C)[C@H]2Cc3ccccc3[C@]1(C)CCN2C(=O)N1[C@@H]2CC[C@H]1C[C@](O)(C(F)(F)F)C2 [Example 73] | -6% |
| CC1(C)[C@H]2Cc3ccccc3[C@]1(C)CCN2C(=O)N1[C@@H]2CC[C@H]1C[C@@H](O)C2 [Example 74] | -17% |
| COC(=O)CC1(c2ccccc2)CCN(C(=O)N2CC[C@@]3(C)c4ccccc4C[C@@H]2C3(C)C)C1 (stereo partly shown) [Example 75] | 26% |
| CC1(C)[C@H]2Cc3ccccc3[C@]1(C)CCN2C(=O)N1[C@@H]2CC[C@H]1CC(=O)C2 [Example 76] | -10% |
| CC1(C)[C@H]2Cc3ccccc3[C@]1(C)CCN2C(=O)N1CCC(CCO)(c2ccccc2)C1 (stereo partly shown) [Example 77] | 30% |
| CC(C)(O)CC1(c2ccccc2)CCN(C(=O)N2CC[C@@]3(C)c4ccccc4C[C@@H]2C3(C)C)C1 (stereo partly shown) [Example 78] | 61% |
| CC1(C)[C@H]2Cc3ccccc3[C@]1(C)CCN2C(=O)N1[C@@H]2CC[C@H]1C[C@H](O)C2 [Example 79, (exo-3-Hydroxy-8-aza-bicyclo[3.2.1]oct-8-yl)-[(2R,6S)-6,11,11-trimethyl-1,2,5,6-tetrahydro-4H-2,6-methano-benzo[d]azocin-3-yl]-methanone] | 13% |
| CC1(C)[C@H]2Cc3ccccc3[C@]1(C)CCN2C(=O)N1[C@@H]2CC[C@H]1C[C@@](O)(C(F)(F)F)C2 [Example 80] | 70% |
